Experiments:
[1] = system: human microvascular endothelial cells (HMVECs); assay: MitoSOX mitochondrial ROS production; type: cell-based; conditions: Example 1
Experimental: (§1) Cells obtained were human microvascular endothelial cells (HMVECs). Cell culture medium was EBM-2 containing 10% FBS plus antibiotics. Assays were MitoSOX, JC1, Histology, Western blot, and ALDH2 activity. Antibodies used were mouse anti-ALDH2 antibody, Cytochrome C, and Beclin (cell signaling).
(§2) HMVECs were seeded and, after reaching confluence, treated with DMSO and Alda-1. Cells were then exposed to normoxia or hyperoxia at different time points. After 24, 48, and 72 hours, cells were collected for mitochondrial analyses.

acute lung injury = assay: Example 6: mice exposed to 100% oxygen 48 hours, BAL fluid, Diff Kwik staining, H&E staining, western blot; type: in vivo, C57BL/6 mice; conditions: 20 μM via osmotic pumps
Experimental: The C57BL/6 mice were embedded with osmotic pumps and continuously injected with either DMSO or Alda-1 (20 μM), then they were exposed to 100% oxygen 48 hours. The lung samples, as well as Bronchial Alveolar Lavage Fluid, were collected for the evaluation of infiltration of cytokines, inflammation, autophagy, and apoptosis by Diff Kwik staining, H&E staining, and western blot.

[2] = system: hyperoxia-induced acute lung injury; assay: Example 4: mice exposed to hyperoxia 48 hours, lung lysate immunoblot and BAL fluid analysis; type: in vivo, C57BL/6 mice; conditions: 20 mM via alzet pumps
Experimental: C57BL/6 mice were exposed to hyperoxia for 48 hours with DMSO (Control) and Alda-1 (20 mM) via alzet pumps on the dorsal side of mice. The mice were divided into four groups: normoxia+DMSO (room air), normoxia+Alda-1, hyperoxia+DMSO, and hyperoxia+Alda-1. The lungs were harvested and the bronchoalveolar lavage (BAL) fluid was collected and analyzed by immunoblot and cytokine levels.

hyperoxia-induced damage = assay: Example 5: mice exposed to hyperoxia 48 hours, lung lysate immunoblot; type: in vivo, C57BL/6 mice; conditions: 20 μM via Alzet pumps
Experimental: C57BL/6 mice were pretreated with DMSO (control) and 20 μM Alda-1 (administered via Alzet pumps), then exposed to hyperoxia for 48 hours. The mice were divided into three groups: Room air, hyperoxia (48 hour)+DMSO, and hyperoxia (48 hour)+Alda-1. The lung tissues were harvested, and lysates evaluated by immunoblot analysis.

4HNE = assay: Oxidative stress assay, 4HNE adduct competitive ELISA on whole cell lysate; type: cell-based, human; conditions: HMVEC pretreated with 20 μM, hyperoxia 48 hours
Experimental: (§3) HMVEC's were preserved in EGM-2 MV media (Lonza, Wakersville, Md.) and supplemented with FBS (25 ml), Hydrocortisone (0.2 ml), hFGF-B (2.0 ml), VEGF (0.5 ml), R3 IGF-1 (0.5 ml), Ascorbic acid (0.5 ml), hEGF (0.5 ml), GA-1000 (0.5 ml) at 37° C. in a 5% carbon dioxide-humidified incubator to maintain sufficient cell growth. The cultured cells were validated for confluence (around 70%) and exposed to hyperoxia for 48 hours with and without Alda-1.
The samples of whole cell lysate (50 μg) were seeded in each well. Oxidative stress was measured by an oxiselect 4HNE adduct competitive ELISA kit (Cell Biolabs), according to the instructions of kit.

ALDH2 [3] = assay: Western blot of whole cell lysate, ALDH2 expression; type: cell-based, human; conditions: HMVEC pretreated with 20 μM, hyperoxia 48 hours, normalized to β-actin
Experimental: (§4) The HMVEC-L cells were cultured and after reaching confluence (70%), were exposed to hyperoxia with or without Alda-1 for 48 hours. The concentration was determined by the proOX p100 sensor (Biospherix). After hyperoxia, the cell pellets were collected by centrifugation and the cell pellets were suspended in lysis buffer (20 mM Tris HCL, pH7.4, 150 mM Nacl, 0.5% Triton-x 100) and the supernatant was collected after centrifugation at high speed (14000 g) for 15 minutes at 4° C. The amount of protein was calculated by BCA assay kit (Pierce, Rockford, Ill.). Equivalent amount of protein (15 μg) subjected to SDS-PAGE using between 4-20% tris-glycine gel (Bio-rad) after which electro transfer with PVDF membrane was performed, followed by blocking in 5% skim milk with washes with TBST. The membranes were treated with primary and secondary antibodies. The bands were developed by pierce EC1 (Thermo Fischer scientific) and films with protein bands were scanned and analyzed densitometrically by NIH ImageJ software. The ratio of protein to loading control was taken and analyzed in percentages.

ALDH2 [4] = target: T1, ALDH2 (Homo sapiens, UniProt P05091); assay: ALDH2 enzymatic activity assay (340 nm) on mitochondrial lysate of HMVEC; type: cell-based
T1 construct: Cells obtained were human microvascular endothelial cells (HMVECs); endogenous in cells; host or cells: HMVEC / HMVEC-L (human lung microvascular endothelial cells)
T1 sequence (P05091 18-517): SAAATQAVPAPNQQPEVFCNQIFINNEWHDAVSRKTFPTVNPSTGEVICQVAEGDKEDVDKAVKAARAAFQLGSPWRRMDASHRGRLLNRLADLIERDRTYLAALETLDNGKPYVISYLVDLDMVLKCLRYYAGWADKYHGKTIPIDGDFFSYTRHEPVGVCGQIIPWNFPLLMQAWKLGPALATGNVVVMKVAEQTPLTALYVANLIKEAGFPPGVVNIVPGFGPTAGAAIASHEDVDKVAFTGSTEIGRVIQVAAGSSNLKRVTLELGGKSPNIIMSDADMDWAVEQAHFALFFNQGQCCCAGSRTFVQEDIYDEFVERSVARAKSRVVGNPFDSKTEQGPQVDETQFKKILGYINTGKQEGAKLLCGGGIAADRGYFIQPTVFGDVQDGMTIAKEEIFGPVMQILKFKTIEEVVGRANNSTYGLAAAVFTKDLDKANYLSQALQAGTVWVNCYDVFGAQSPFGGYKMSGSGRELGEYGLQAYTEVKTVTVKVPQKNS
Experimental: as §1, §2, §3
The enzymatic activity of ALDH2 was measured by transformation of acetaldehyde to acetic acid (Chen et al., 2008). The HMVEC-L cells were cultured as mentioned above, followed by 300 μl of buffer (10 mM DTT, 100 mM Tris-HCl pH 8.0, 20% glycerol, 1% Triton X-100) and centrifuged at 55000 g for 30 minutes at 4° C. […] The specificity of enzyme reaction was expressed as nmol NADH/minute/mg protein.

[5] = system: human microvascular endothelial cells (HMVEC); assay: JC-1 staining, mitochondrial membrane potential; type: cell-based
Experimental: as §1, §2
HMVEC-L cells were maintained in a EGM-2 (Lonza) media supplemented with FBS (25 ml), Hydrocortisone (0.2 ml), hFGF-B (2.0 ml), VEGF (0.5 ml), R3 IGF-1 (0.5 ml), Ascorbic acid (0.5 ml), hEGF (0.5 ml), GA-1000 (0.5 ml) at 37° C. in a 5% carbon dioxide humidified incubator to maintain a sufficient cell growth. The HMVEC-L cells were plated at density of 1×10,000 cells in a cell view dish with glass bottom (Thomas scientific). When cells attained 70% confluency, they were exposed to hyperoxia for 48 hours with Alda-1 and without Alda-1. Following exposure to hyperoxia, the HMVEC-L cells were washed by HBSS solution (without Ca+ and Mg+) (Gibco). […] The live cell imaging was conducted using fluorescence microscopy (Olympus). The green and red images were captured in fluorescence and images were quantified by image J by red to green ratio.

cytochrome C = assay: Western blot of whole cell lysate, cytochrome C; type: cell-based, human
Experimental: as §1, §2
as §4, with “Equivalent amount of protein (15 μg) subjected to SDS-PAGE using between 4-20% tris-glycine gel (Bio-rad) after which electro transfer with PVDF membrane was performed, followed by blocking in 5% skim milk with washes with TBST. The membranes were treated with primary and secondary antibodies.” left out

Bax = assay: Western blot of whole cell lysate, Bax; type: cell-based, human; conditions: HMVEC pretreated with 20 μM, hyperoxia 48 hours, normalized to β-actin
Experimental: as §4

[6] = HMVECs, Example 1, hyperoxia, 24 and 48 hours

Structure (SMILES): O=C(NCc1ccc2c(c1)OCO2)c1c(Cl)cccc1Cl [Alda-1, N-(1,3-Benzodioxol-5-ylmethyl)-2,6-dichlorobenzamid]
- mitochondrial ROS production [1]: suppressed
- LC3B (western blot) (acute lung injury): reduced
- NF-κB-p65 (western blot) (acute lung injury): reduced
- autophagy (acute lung injury): decrease
- cytochrome C release (western blot) (acute lung injury): reduced
- cytokine and neutrophil infiltration and inflammation, DMSO mice vs Alda-1 mice (acute lung injury): more cytokine and neutrophil infiltration and elevated inflammation than mice treated with Alda-1
- inflammation (acute lung injury): decrease
- oxidative stress (acute lung injury): decrease
- Drp1 level in lung lysate vs DMSO [2]: decreased levels
- OPA1 level in lung lysate vs DMSO [2]: decreased levels
- infiltration of macrophages in BAL fluid vs DMSO [2]: less infiltration
- PTEN-induced kinase 1 (PINK1) level vs hyperoxic controls (hyperoxia-induced damage): decrease
- mitofusin 1 (MFN1) level in lung lysates vs hyperoxia only (hyperoxia-induced damage): decreased levels
- mitofusin 2 (MFN2) level in lung lysates vs hyperoxia only (hyperoxia-induced damage): decreased levels
- decrease in 4HNE accumulation compared to untreated HMVEC exposed to hyperoxia (4HNE): 26%
- effect on ALDH2 expression in hyperoxia (ALDH2 [3]): no effect
- increase in ALDH2 activity compared to hyperoxia without pretreatment (ALDH2 [4]; HMVEC mitochondrial extract, 20 μM, hyperoxia 48 hours): 45%
- ALDH2 activity (ALDH2 [4]; HMVECs, Example 1, during both normoxia and hyperoxia): elevated
- increase in mitochondrial membrane potential (JC-1 red to green ratio) compared to hyperoxia without treatment ([5]; HMVEC, 20 μM, hyperoxia 48 hours): 1.62 fold
- mitochondrial membrane potential [5, 6]: rescued
- decrease in cytochrome C compared to hyperoxia without pretreatment (cytochrome C; HMVEC pretreated with 20 μM, hyperoxia 48 hours, normalized to β-actin): 64%
- Cytochrome C release (cytochrome C; [6]): decreased
- decrease in Bax compared to hyperoxia without pretreatment (Bax): 25%

Reference: patent US11185528B2, “ALDA-1 treatment and prevention of pulmonary disease” (University of South Florida, priority 2018, dated 2021)
